Laboratory results published in patent US7947733B2, “Phosphorylated pyrone analogs and methods” (Limerick BioPharma, priority 2007, dated 2011).
Several values for one entry are separate records, joined by “and”; a condition that tells them apart may be missing. Equal values may be shown once. One block for each compound: values may come before it.

What was measured:
[1] = in vivo; cited from earlier work
rats = assay: Blood glucose levels in rats co-administered with quercetin-3′-O-phosphate and tacrolimus; assay type: in vivo, rat; conditions: for Blood glucose, Mean change from all vehicle control / Blood glucose, Mean change from Day 1: Prograf 0.5 mg/kg i.p. + Vehicle 1; for Blood glucose, Mean: Prograf 0.5 mg/kg i.p. Day 1 to Day 25 + Vehicle 1, 5 rats; for Blood glucose, individual rats: Prograf 0.5 mg/kg i.p. once daily Day 1 to Day 25 + Vehicle 1 Day 11 to Day 25
Procedure: One set of 5 rats is treated from day 1 to day 25 with inert vehicle 2 intraperitoneally and treated from day 11 to day 25 with inert vehicle 1 intraperitoneally. […] A third set 5 of rats is treated from day 1 to day 25 with tacrolimus (Prograf®) intraperitoneally at 0.5 mg/kg, and treated from day 11 to day 25 intraperitoneally with quercetin-3′-O-phosphate (Q-Phosphate) at 114 mg/kg. The blood glucose level in the rats is measured on days 1, 10, 15, 20, and 25.

kidney of rats = assay: Renal pathology in rats co-administered with quercetin-3′-O-phosphate and tacrolimus; assay type: in vivo, rat; conditions: tacrolimus (Prograf) 0.5 mg/kg and inert vehicle, 25 days
Procedure: Tissue is removed from the kidney of rats treated with tacrolimus (Prograf®) at 0.5 mg/kg and inert vehicle, and from rats treated with tacrolimus (Prograf®) at 0.5 mg/kg and quercetin-3′-O-phosphate (Q-Phosphate) at 11 mg/kg, 28 mg/kg, and at 114 mg/kg for 25 days. […] The tissue from rats treated with Q-Phosphate and tacrolimus show no vacuoles.

Compound: O=c1c(O)c(-c2ccc(O)c(O)c2)oc2cc(O)cc(O)c12 [quercetin aglycone, quercetin]
serum half-life [1]: 19 to 25 h

Blood glucose, Mean change from all vehicle control (rats; Day 1): -0.10 g/L
Blood glucose, Mean (rats; Day 1): 1.27 g/L
Blood glucose, Mean change from Day 1 (rats; Day 10): +0.22 g/l
Blood glucose, Mean change from all vehicle control (rats; Day 10): +0.23 g/l
Blood glucose, Mean (rats; Day 10): 1.49 g/L
Blood glucose, Mean change from Day 1 (rats; Day 15): +1.27 g/l
Blood glucose, Mean change from all vehicle control (rats; Day 15): +1.27 g/l
Blood glucose, Mean (rats; Day 15): 2.54 g/L
Blood glucose, Mean change from Day 1 (rats; Day 20): +1.66 g/l
Blood glucose, Mean change from all vehicle control (rats; Day 20): +1.81 g/l
Blood glucose, Mean (rats; Day 20): 2.93 g/L
Blood glucose, Mean change from Day 1 (rats; Day 25): +1.28 g/l
Blood glucose, Mean change from all vehicle control (rats; Day 25): +1.38 g/l
Blood glucose, Mean (rats; Day 25): 2.55 g/L
vacuolation of kidney tissue (kidney of rats): significant vacuolation
Compound: C=CC[C@@H]1/C=C(\C)C[C@H](C)C[C@H](OC)[C@H]2O[C@@](O)(C(=O)C(=O)N3CCCC[C@H]3C(=O)O[C@H](/C(C)=C/[C@@H]3CC[C@@H](O)[C@H](OC)C3)[C@H](C)[C@@H](O)CC1=O)[C@H](C)C[C@@H]2OC [Prograf ®, tacrolimus, reference compound]
Blood glucose, individual rats (rats; Day 1): 1.16 g/l (2×) and 1.34 g/l and 1.22 g/l and 1.47 g/l
Blood glucose, individual rats (rats; Day 10): 1.30 g/L and 1.39 g/L and 1.40 g/L and 1.09 g/L and 2.25 g/L
Blood glucose, individual rats (rats; Day 15): 3.72 g/L and 1.67 g/L and 2.31 g/L and 1.97 g/L and 3.02 g/L
Blood glucose, individual rats (rats; Day 20): 2.79 g/L and 3.70 g/L and 2.97 g/L and 2.41 g/L and 2.77 g/L
Blood glucose, individual rats (rats; Day 25): 0.97 g/L and 3.16 g/L and 1.69 g/L and 2.98 g/L and 3.96 g/L
